Laboratory results taken from US20140369943A1, “COMPOSITIONS COMPRISING ISOSORBIDE MONOESTERS AND HALOGENATED ANTIMICROBIAL ACTIVE COMPOUNDS” (CLARIANT INTERNATIONAL LTD., priority 2011, published 2014).
Entries after “also recorded” stand apart in the source; their conditions may differ. Like-named read-outs stand apart in the source and are kept apart here.

What was measured:
Pseudomonas oleovorans = assay: MIC determination in agar (antimicrobial efficacy); type: cell-based; settings: MIC of bronopol alone, CASO agar pH 7, corrected for dilution
Procedure: (§1) Below, the antimicrobial efficacy of a composition according to the invention consisting of 20% by weight of isorbide caprylate 1 and 80% by weight of a 10% by weight strength solution of 2-bromo-2-nitropropane-1,3-diol (bronopol) in water against bacteria, fungi and yeasts is examined (hereinbelow, the composition is referred to as “composition A”). For the tests with bacteria, composition A was diluted with butyl polyglycol and then, at 50° C., added to liquid CASO agar (casein-peptone agar) buffered to pH 7 (+1-0.2) in various concentrations (hereinbelow referred to as compositions B1, B2, etc.). For the tests with fungi and yeasts, composition A was diluted with butyl polyglycol and then added to liquid Sabouraud 4% dextrose agar buffered to pH 5.6 (+1-0.2) in various concentrations (hereinbelow referred to as compositions PH1, PH2, etc.). […]
(§2) The minimum inhibitory concentrations for the pure substances isosorbide caprylate 1 and bronopol were determined analogously.
(§3) The values determined for the minimum inhibitory concentrations “MIC mixture”, stated in Table 1 below, are based on the concentrations of composition A.
(§4) The values determined for the minimum inhibitory concentrations “QA” and “QB”, stated in Table 1 below, have already been corrected for the dilution effect of the water and the butyl polyglycol. […]

Staphylococcus aureus = assay: MIC determination in agar (antimicrobial efficacy); type: cell-based; settings: MIC of bronopol alone, CASO agar pH 7, corrected for dilution
Procedure: as §1, §2, §3, §4

Penicillium minioluteum = assay: MIC determination in agar (antimicrobial efficacy); type: cell-based; settings: MIC of bronopol alone, Sabouraud 4% dextrose agar pH 5.6, corrected for dilution
Procedure: (§5) Below, the antimicrobial efficacy of a composition according to the invention consisting of 20% by weight of isorbide caprylate 1 and 80% by weight of a 10% by weight strength solution of 2-bromo-2-nitropropane-1,3-diol (bronopol) in water against bacteria, fungi and yeasts is examined (hereinbelow, the composition is referred to as “composition A”). For the tests with bacteria, composition A was diluted with butyl polyglycol and then, at 50° C., added to liquid CASO agar (casein-peptone agar) buffered to pH 7 (+1-0.2) in various concentrations (hereinbelow referred to as compositions B1, B2, etc.). For the tests with fungi and yeasts, composition A was diluted with butyl polyglycol and then added to liquid Sabouraud 4% dextrose agar buffered to pH 5.6 (+1-0.2) in various concentrations (hereinbelow referred to as compositions PH1, PH2, etc.). The compositions B1, B2, etc. and PH1, PH2 etc. were each poured into Petri dishes and each inoculated with identical amounts of bacteria, fungi and yeasts. The minimum inhibitory concentration (MIC) is the concentration at which inhibition of the growth of the bacteria, fungi and yeasts in the compositions B1, B2, etc. and PH1, PH2, etc. occurs.
as §2, §3
(§6) The values determined for the minimum inhibitory concentrations “QA” and “QB”, stated in Table 1 below, have already been corrected for the dilution effect of the water and the butyl polyglycol.
(§7) Kull et al., Applied Microbiology 1961, 9, 538 using the formula below: […]
(§8) where • Qa is the minimum inhibitory concentration of isosorbide caprylate 1 in the mixture employed, • QA is the minimum inhibitory concentration of isosorbide caprylate 1, • Qb is the minimum inhibitory concentration of bronopol in the mixture employed and • QB is the minimum inhibitory concentration of bronopol.
(§9) The values for Qa and Qb are determined from the values for the mixtures (“MIC mixture”) by multiplying the minimum inhibitory concentrations determined for Qa with the factor 0.2 and for Qb with the factor 0.08, because of the proportions of the ingredients—20% by weight of isosorbide caprylate 1 and 8% by weight of bronopol—in composition A according to the invention examined.
(§10) If an SE value >1 is obtained, an antagonistic effect is present.

Escherichia coli = assay: MIC determination in agar (antimicrobial efficacy); type: cell-based; settings: MIC of bronopol alone, CASO agar pH 7, corrected for dilution
Procedure: as §5, §2, §3, §6, §7, §8, §9, §10

Enterobacter aerogenes = assay: MIC determination in agar (antimicrobial efficacy); type: cell-based; settings: MIC of bronopol alone, CASO agar pH 7, corrected for dilution
Procedure: as §5, §2, §3, §6, §7, §8, §9, §10

Aspergillus brasiliensis = assay: MIC determination in agar (antimicrobial efficacy); type: cell-based; settings: MIC of bronopol alone, Sabouraud 4% dextrose agar pH 5.6, corrected for dilution
Procedure: as §5, §2, §3, §6, §7, §8, §9, §10

Citrobacter freundii = assay: MIC determination in agar (antimicrobial efficacy); type: cell-based; settings: MIC of bronopol alone, CASO agar pH 7, corrected for dilution
Procedure: as §5, §2, §3, §6, §7, §8, §9, §10

Aspergillus terreus = assay: MIC determination in agar (antimicrobial efficacy); type: cell-based; settings: MIC of bronopol alone, Sabouraud 4% dextrose agar pH 5.6, corrected for dilution
Procedure: as §5, §2, §3, §6, §7, §8, §9, §10

Pseudomonas aeruginosa = assay: MIC determination in agar (antimicrobial efficacy); type: cell-based; settings: MIC of bronopol alone, CASO agar pH 7, corrected for dilution
Procedure: as §5, §2, §3, §6, §7, §8, §9, §10

Klebsiella pneumoniae = assay: MIC determination in agar (antimicrobial efficacy); type: cell-based; settings: MIC of bronopol alone, CASO agar pH 7, corrected for dilution
Procedure: as §5, §2, §3, §6, §7, §8, §9, §10

Proteus vulgaris = assay: MIC determination in agar (antimicrobial efficacy); type: cell-based; settings: MIC of bronopol alone, CASO agar pH 7, corrected for dilution
Procedure: as §5, §2, §3, §6, §7, §8, §9, §10

Candida albicans = assay: MIC determination in agar (antimicrobial efficacy); type: cell-based; settings: MIC of bronopol alone, Sabouraud 4% dextrose agar pH 5.6, corrected for dilution
Procedure: as §5, §2, §3, §6, §7, §8, §9, §10

Fusarium solani = assay: MIC determination in agar (antimicrobial efficacy); type: cell-based; settings: MIC of bronopol alone, Sabouraud 4% dextrose agar pH 5.6, corrected for dilution
Procedure: as §5, §2, §3, §6, §7, §8, §9, §10

Penicillium funicolosium = assay: MIC determination in agar (antimicrobial efficacy); type: cell-based; settings: MIC of bronopol alone, Sabouraud 4% dextrose agar pH 5.6, corrected for dilution
Procedure: as §5, §2, §3, §6, §7, §8, §9, §10

[1] = tested on: bacteria, fungi and yeasts; assay: antimicrobial activity, overall statements in words; type: cell-based
Procedure: as §5

[2] = tested on: bacteria, fungi and yeasts; settings: general statement, no data given, cited from earlier work

O=[N+]([O-])C(Br)(CO)CO [bronopol, 2-bromo-2-nitropropane-1,3-diol]
QB, meas. (Pseudomonas oleovorans): 50 ppm
QB, meas. (Staphylococcus aureus): 75 ppm
QB, meas. (Penicillium minioluteum): 500 ppm
QB, meas. (Escherichia coli): 50 ppm
QB, meas. (Enterobacter aerogenes): 75 ppm
QB, meas. (Aspergillus brasiliensis): 500 ppm
QB, meas. (Citrobacter freundii): 50 ppm
QB, meas. (Aspergillus terreus): 1000 ppm
QB, meas. (Pseudomonas aeruginosa): 75 ppm
QB, meas. (Klebsiella pneumoniae): 50 ppm
QB, meas. (Proteus vulgaris): 50 ppm
QB, meas. (Candida albicans): 500 ppm
QB, meas. (Fusarium solani): 500 ppm
QB, meas. (Penicillium funicolosium): 150 ppm

CCCCCCCC(=O)O [caprylic acid]
antimicrobial efficacy as constituent of isosorbide caprylate 1 ([1]; present in an amount of only 0.4% by weight): so low that it is negligible; also recorded: lack of antimicrobial activity
antimicrobial activity ([2]; at a pH of 6 or above): no antimicrobial activity
antimicrobial efficacy [2]: antimicrobially effective

O[C@@H]1CO[C@H]2[C@@H]1OC[C@@H]2O [isosorbide]
antimicrobial activity ([1]; overall conclusion in words from Tables 1 and 2): neither isosorbide nor isosorbide dicaprylate are antimicrobially active; also recorded: lack of antimicrobial activity

isosorbide monocaprylate
antimicrobial activity ([1]; concluded from activity of isosorbide caprylate 1 and inactivity of its other constituents): significant antimicrobial activity
